Measurements taken from patent publication US20120088808A1, “CRYSTAL FORMS OF SAXAGLIPTIN” (SANDOZ AG, priority 2009, published 2012).
Structures can show the parent of a compound that is named as a salt. Blank lines part the entries; values can stand above or below the compound they belong to.

What was measured:
Type in all cases: physicochemical
[1] = Water content by the Karl Fischer method
Method: The water content is determined according to the Karl Fischer method.

[2] = Stability of the crystal form against relative humidity (polymorphic transformation); conditions: for relative humidity above which the form transforms to known Dihydrate H2-1: transformation not reversible, hydrochloride
Method: Infrared spectra (IR) were collected on a MKII Golden Gate™ Single Reflection Diamond ATR (attenuated total reflection) cell with a Bruker Tensor 27 FTIR spectrometer with 4 cm^−1 resolution. To collect a spectrum a spatula tip of a sample was applied to the surface of the diamond in powder form. Then the sample was pressed onto the diamond with a sapphire anvil and the spectrum was recorded. A spectrum of the clean diamond was used as background spectrum. A typical precision of the wavenumber values is in the range of about ±2 cm^−1. Thus, an infrared peak that appears at 1716 cm^−1 can appear between 1714 and 1718 cm^−1 on most infrared spectrometers under standard conditions. A sample was stored at 45-49% relative humidity for 12 hours.

[3] = Moisture sorption isotherm / water content at defined relative humidity, 25° C.
Method: The moisture sorption isotherm was recorded with a SPS-11 moisture sorption analyzer (MD Mess-technik, Ulm, D). The measurement cycle was started at 0% relative humidity (RH), increased in 10% steps up to 90% RH and in a 5% step up to 95% RH. The equilibrium condition for each step was set to a constant mass ±0.003% over 49 min. The temperature was 25±0.1° C.

[4] = Thermogravimetric analysis (mass / water loss)
Method: Thermogravimetric analysis was performed with the thermogravimetric system TGA-7 using the Pyris Software for Windows NT (Perkin-Elmer, Norwalk, Conn., USA), 50 μl platinum pans, nitrogen purge gas (sample purge: 20 ml min^−1, balance purge: 40 ml min^−1).

[5] = at 40% relative humidity at 25° C.

water content (Karl Fischer apparatus) ([1]; crystalline form as obtained in example 1): 1.2 % w/w
relative humidity at which the form is stable [2]: below 50 % relative humidity
relative humidity above which the form transforms to known Dihydrate H2-1 ([2]; listed as Form I-S): Above 50 % relative humidity
water content ([3]; at about 50% relative humidity at 25° C., reversible): about 1.5%
fate of the water when lowering the relative humidity ([3]; relative humidity at 25° C. lowered to about 0.5%, reversible on exposure to about 50% humidity): lost completely
Structure (SMILES): N#C[C@@H]1C[C@@H]2CC2N1C(=O)[C@@H](N)C12CC3CC(CC(O)(C3)C1)C2 (stereo partly drawn) [form I-S, Saxagliptin hydrochloride]

water loss based on thermogravimetric analysis ([4]; FIG. 6): not more than 0.5 % w/w
Structure (SMILES): N#C[C@@H]1C[C@@H]2CC2N1C(=O)[C@@H](N)C12CC3CC(CC(O)(C3)C1)C2 (stereo partly drawn) [form HT-S, Saxagliptin hydrochloride]

relative humidity above which the form transforms to known Dihydrate H2-1 [2]: above 40 % relative humidity
water corresponding to the TGA mass loss ([4]; up to 100° C.): 2.86 mol of water
mass loss by thermogravimetric analysis ([4]; up to 100° C., FIG. 11): about 12.8%
water content (moisture sorption analysis) ([3]; at 0% relative humidity, process reversible): 12.8%
water content (moisture sorption analysis) [3, 5]: 13.1%
water corresponding to the water content [3, 5]: 2.94 mol of water
Structure (SMILES): N#C[C@@H]1C[C@@H]2CC2N1C(=O)[C@@H](N)C12CC3CC(CC(O)(C3)C1)C2 (stereo partly drawn) [form IV-S, Saxagliptin hydrochloride]

Water (KF) ([1]; after drying in vacuum oven at 50° C. about 10 hours, then about 80° C. for 5 hours): 0.7%
Water (KF) ([1]; sample stored at 45-49% relative humidity for 12 hours): 1.2%
change in the crystal form (FTIR) ([2]; after storage at 45-49% relative humidity for 12 hours): No change in the crystal form
Structure (SMILES): N#C[C@@H]1C[C@@H]2CC2N1C(=O)[C@@H](N)C12CC3CC(CC(O)(C3)C1)C2 (stereo partly drawn) [form HT-IV S, Saxagliptin hydrochloride]
